Data: PMC8434099, “Selected Drug-Likeness Properties of 2-Arylidene-indan-1,3-dione Derivatives—Chemical Compounds with Potential Anti-Cancer Activity” (Molecules, 2021)

How the values were obtained:
[1] = Chromatographic (RP-HPLC) examination of lipophilicity, Snyder–Soczewiński model; type: physicochemical; settings: for logkw (ACN) / −S (ACN): acetonitrile as organic modifier; for Δ = |logkw-MeOH − logkw-ACN|: difference of logkw between modifiers
Method: The chromatographic analysis was carried out on a Shimadzu device equipped with a pump system (LC-20AD model), a detector with a diode bench (SPD-M20A model), a degasser (DGU-20A 5R model), a chromatographic oven (CTO-10AS VP), autosampler (SIL-20AC HT model), and chromatographic column (LiChrospher 100 RP-18, 5 μm, Poznań, Poland). Analyses were performed, leading to a multicratic elution. The mobile phase was methanol (J. T. Backer, Phillipsburg, NJ, USA) or acetonitrile (J. T. Backer) and water (Hydrolab, HPL5UV model, Straszyn, Poland) in different volume ratios. In individual analyses, the concentration of the organic modifier expressed as a […] was 0.75–0.95 with a constant step of 0.05. The test compounds were dissolved in methanol. The injection volume was 10 µL. The flow was set at 1 mL/min, the temperature of the chromatography oven at 25 °C, and the detector temperature at 2 °C higher than the ambient temperature. Compounds were detected in the range 190–800 nm. All samples were tested in duplicate at least. Column dead time (tM) was determined using uracil (Sigma Aldrich). The retention coefficient was calculated using the following formula:(1) k=tR/tM−1, where tR is the retention time of the test compound in a given eluent composition, and tM is the chromatographic column dead time.
The value of lipophilicity was determined using the linear dependence of the decimal logarithm from the retention coefficient (logk) and the concentration of the organic modifier in the mobile phase, which was expressed as a volume fraction. For this purpose, the following formula was used:(2) logk=logkw+Sφ, where logk is the decimal logarithm of the retention coefficient, logkw is the value obtained by extrapolating the curve, S is the slope of the regression curve, and φ is the volume fraction of the organic modifier.
The coefficient of determination (R^2) was also calculated for the prepared curves.

B16F10 cells = experiment: Antiproliferative activity, MTT protocol; type: cell-based, mouse; settings: 0.01 mg/mL, 72 h, relative to control culture
Method: (§1) Mouse melanoma (B16F10), human lung carcinoma (A549), and human cervix (HeLa) cell lines (kindly gifted by Prof. Tomasz Drewa, a Chair of Urology, Department of Regenerative Medicine, Collegium Medicum, Nicolaus Copernicus University, Bydgoszcz, Poland) were cultivated at 37 °C, controlled CO2 atmosphere (Binder, Tuttlingen, Germany), and high humidity with RPMI cell culture medium (with L-glutamine and sodium bicarbonate, Sigma-Aldrich), supplemented with 10% of fetal bovine serum (FBS, Biowest, Nuaillé, France), as well as antibiotics (penicillin, streptomycin) and antimycotics (amphotericin B) (Sigma-Aldrich). Combretastatin A4 (CA4), doxorubicin (DoX), and […] were purchased from Sigma-Aldrich.
Cells were counted with an automated cell counter (Countess® II FL, Invitrogen by Thermo Fisher Scientific Inc., Waltham, MA, USA). […] Absorbance readout was conducted using plate reader Multiskan Spectrum (Thermo Electron Corporation, Waltham, MA, USA) at 570 nm.
(§2) Combretastatin A4 (CA4), doxorubicin (DX), and […] were employed as positive controls. Biological evaluation was performed as three independent experiments; mean response and standard deviation were calculated using Excel software (v. 2013, Microsoft Corporation, Redmond, WA, USA).

[2] = system: Human Serum Albumin (HSA); experiment: Binding to albumin, fluorescence quenching; settings: calculated from association constant KS for albumin concentration in blood of 44 mg/mL (660 μM); for fraction unbound: human, human serum albumin solution (10 µM HSA), pH 7.4, read-out: free fraction (albumin)
Method: Fluorescence lifetime and fluorescence intensity of HSA solutions were measured using the time-resolved Fluorescence Spectrophotometer Life Spec II (Edinburgh Instruments Ltd., Livingston, UK) with the sub-nanosecond pulsed EPLED diode emitting a light of the wavelength 280 nm. The spectrometer was equipped with electronically cooled photomultiplier Hamamatsu R928 connected with TCC900 PC Card, which incorporates all the electronic modules required for Time-Correlated Single Photon Counting (TCSPC). The fluorescence decays were recorded at an emission wavelength of 350 nm. The data were fitted with an exponential decay to obtain total fluorescence intensity and lifetime. Measurements were performed at room temperature using quartz cuvettes 3.5 × 10 mm. The exposure time of the sample was 30 s. A spectrophotometer Jasco V-550 was used for absorption measurements.
Human Serum Albumin (HSA, 97%) was purchased from Sigma Aldrich. For the fluorescence quenching measurements, the 10 µM PBS solution of HSA at pH 7.4 was prepared, and 10 mM stock solutions of studied compounds were prepared in DMSO (dimethylsulfoxide). The final concentration of studied compounds in HSA solution varied between 0 and 70 µM.
Fluorescence quenching of albumin can be described by the Stern–Volmer Equation [21]: (3) F0/F=KSV[Q]+1, where F0 and F are the fluorescence intensities in the absence and presence of quencher, respectively, [Q] is the concentration of quencher, and KSV is the Stern–Volmer quenching constant.
Due to the fact that a quencher can absorb light at the excitation and/or emission wavelengths, the measured intensity should be corrected according to the Formula [22]:(4) Fobserved=Fcorrect×10^−Aex×dex/2−Aem×dem/2, where Fobserved is the measured fluorescence, Fcorrect is the fluorescence that would be measured in the absence of absorption effect, Aex and Aem are the absorbances of ligand at the excitation (280 nm) and emission wavelength (350 nm), respectively, and dex and dem are the cuvette pathlength in the excitation and emission direction (0.35 cm and 1 cm, respectively).
As the fluorophore can be quenched by collisions or by complex formation with the quencher, there are two types of quenching: dynamic and static. They can be distinguished by lifetime measurements. […] If the quenching is known to be dynamic, then:(5) F0/F=KD[Q]+1=τ0/τ, where τ0 and τ are the lifetimes in the absence and presence of quencher, and KD is the dynamic quenching constant.
In many cases, both static and dynamic quenching occurs for the same fluorophore, then modified Stern–Volmer equation has the form:(6) F0/F=(KD[Q]+1)(KS[Q]+1)=τ0/τ(KS[Q]+1),
The dynamic portion of the quenching (KD[Q] + 1), according to Equation (5), can be determined by lifetime measurements. The portion (KS[Q] + 1) relates to static quenching, and KS is the association constant, which is given by:(7) KS=[F−Q]/[F][Q], where [F−Q] is the concentration of complex fluorophore–quencher, [F] is the concentration of uncomplexed fluorophore (concentration of free HSA molecules), and [Q] is the concentration of quencher.
In this study, the tested compounds were added to the HSA solution, and the fluorescence intensity and lifetime at 350 nm were measured for varying concentrations of ligands. On the basis of absorbance measurements of ligands at 280 nm and 350 nm, the correct fluorescence intensities were estimated using Equation (4). Then, the Stern–Volmer constants, dynamic quenching constants, and association constants of studied compounds were determined using Equations (3), (5) and (6), respectively.
Knowing the value of association constant KS, it is possible to determine the theoretical percentage of the bound and free fraction of the drug for the physiological concentration of albumin. […]

HeLa cells = experiment: Antiproliferative activity, MTT protocol; type: cell-based, human; settings: 0.01 mg/mL, 72 h
Method: as §1
(§3) Cells were counted with an automated cell counter (Countess® II FL, Invitrogen by Thermo Fisher Scientific Inc., Waltham, MA, USA). A number of 1 × 10^3 (B16F10, A549) or 2.5 × 10^3 cells were plated in each well of 96-well plate (Nunc Edge 2F, Thermo Fisher Scientific Inc.) and left for 24 h incubation prior to drug administration. After this period, the medium was replaced with a fresh medium containing the drugs (at final concentration of 0.01 mg/mL) and left for incubation for the next 72 h. A solution of thiazol blue tetrazolium (MTT, Sigma-Aldrich) was prepared in PBS at concentration of 5 mg/mL and administrated to the cell culture medium at the volume of 10% of the initial medium volume. After 2 h of incubation, the medium was removed, and crystals of formazan were solubilized in isopropanol (Sigma-Aldrich). Absorbance readout was conducted using plate reader Multiskan Spectrum (Thermo Electron Corporation, Waltham, MA, USA) at 570 nm.
as §2

A549 cells = experiment: Antiproliferative activity, MTT protocol; type: cell-based, human; settings: 0.01 mg/mL, 72 h, relative to control culture
Method: as §1, §3, §2

[3] = RP-HPLC, extrapolated Snyder–Soczewiński curve
[4] = slope of the Snyder–Soczewiński regression curve

Structure (SMILES)	logkw (ACN) [1, 3]	logkw (MeOH) ([1]; RP-HPLC, methanol as organic modifier, extrapolated Snyder–Soczewiński curve)	Δ = |logkw-MeOH − logkw-ACN| [1]	−S (ACN) [1, 4]	−S (MeOH) ([1]; slope of the Snyder–Soczewiński regression curve, methanol as organic modifier)	Response of B16F10 cells (in words) (B16F10 cells)	bound fraction (albumin) [2]	fraction unbound [2]	Number of HeLa cells compared to the control culture (HeLa cells)	Effect on HeLa cells (in words) (HeLa cells; relative to control culture)	Inhibition of development and division of A549 cells (in words) (A549 cells)
O=C1C(=Cc2cccc3ccccc23)C(=O)c2ccccc21 [Compound 3F, 2-[(naphthalen-1-yl)methylidene]-1H-indene-1,3(2H)-dione]	2.6107	3.9640	1.3533	2.7449	3.8549	responded best	93%	0.07			
COc1ccc2c(OC)ccc(C=C3C(=O)c4ccccc4C3=O)c2c1 [Compound 3G, 2-[(4,7-dimethoxynaphthalen-1-yl)methylidene]-1H-indene-1,3(2H)-dione]	2.8533		1.7531	2.8762			88%	0.12	7.15 ± 3.12%	more effective than the control compounds	most strongly inhibited
